Reference: US20220409620A1, “REDUCING IMMUNOGENICITY TO PEGLOTICASE” (Horizon Pharma Rheumatology LLC, priority 2016, published 2022)

Test system: adult patients with uncontrolled gout
Assay: Serum uric acid (sUA) levels and sUA responder rate, open-label study of pegloticase with MTX (MIRROR OL)
Type: in vivo, human
Details: Month 6 sUA Responders
Experimental: The primary objective is to estimate the response rate during Month 6 (Weeks 20, 22, and 24), as measured by the sustained normalization of serum uric acid (SUA) to <6 mg/dL for at least 80% of the time during Month 6 in subjects receiving KXX with MTX.
The primary efficacy outcome endpoint is the sustained normalization of SUA to <6 mg/dL for at least 80% of the time during month 6 (weeks 20, 22, and 24) in subjects receiving KXX with MTX. […] Participants who achieve this endpoint were classified as “responders.” Serum uric acid (SUA) responders may also be defined as participants achieving and maintaining SUA <6 mg/dL for at least 80% of the time during Month 6 (Weeks 20, 22, and 24).
Blood samples may be collected prior to each pegloticase infusion for measurement of SUA levels using the Beckman Coulter AU System Uric Acid procedure. Participants were declared “non-responders” if there were SUA measures >6 mg/dL at 2 consecutive study visits beginning with the week 2 visit. […] This assumption and subsequent discontinuation of pegloticase was consistent with the protocol of large phase III randomized controlled trials and the product label. A formal stopping rule was 2 occasions of SUA levels of greater than 6 mg/dL.
Clinical Chemistry—Blood samples were collected prior to each pegloticase infusion for measurement of SUA levels (primary efficacy parameter) using the Beckman Coulter AU System Uric Acid procedure. In this procedure uric acid is converted to hydrogen peroxide. Hydrogen peroxide reacts with reagent to produce a chromophore which is read bichromatically at 660/800 nm. The amount of dye formed is proportional to the uric acid concentration in the sample.
Serum samples for measurement of SUA levels were collected at the Screening Visit, the Week −4 Visit (prior to the first dose of MTX), and the Week −2 Visit during the MTX Run-in Period; within 48 hours prior to each pegloticase infusion and after the end of each pegloticase infusion prior to discharge from the site during the Pegloticase+IMM Period; at the non-infusion Week 52/End of Study/Early Termination Visits and at the Post Treatment 3 and 6 Month Follow-up Visits. Additional serum samples for SUA levels were collected at optional non-infusion (Frequent Sampling) Visits at Weeks 1 and 7. […] Subjects with SUA level >6 mg/dL at 2 consecutive visits beginning at Week 2 visit discontinued treatment, completed the End of Pegloticase Infusion Visit procedures within 2 weeks and continued the subject visits according to the protocol (without treatment).
Efficacy analyses were performed using the modified intention-to-treat (mITT) population, defined as all enrolled subjects who received ≥1 dose of pegloticase. The proportion of Month 6 responders was summarized, along with a 95% confidence interval for the proportion. The proportion of Month 3 and overall (Months 3 and 6 combined) responders was analyzed similarly.
A subject was declared a non-responder if the subject had SUA level >6 mg/dL at 2 consecutive study visits beginning with the Week 2 Visit. In addition, a subject who withdraws from study treatment for any reason after the first dose of pegloticase in the KXX+MTX Period and prior to Month 6 (for the primary endpoint) or Month 3 (for the secondary endpoint) was considered a non-responder if SUA values were not collected at the planned time points.
Patients were administered oral MTX (15 mg/week) and folate (1 mg/day) 4 weeks prior to the first pegloticase infusion (Day 1) and throughout the pegloticase treatment period. Blood was drawn prior to each infusion to measure sUA level, monitor clinical parameters, and examine for ADA development. All patients followed typical IR prophylaxis protocols (fexofenadine one day before and the morning of each infusion and acetaminophen and IV corticosteroid the morning of each infusion).

[1] = End of Pegloticase Infusions Visit, n=2

Substance: pegloticase
- Serum Uric Acid, Observed, Median (Day 1-Post-Infusion, n=8): 0.30 mg/dL
- sUA <6 mg/dL, n (%) (Day 1-Post-Infusion, n=8): 8 (100%)
- Serum Uric Acid, Change from Baseline, Mean (SD) [1]: −8.50 (1.556) mg/dL
- Serum Uric Acid, Change from Baseline, Median [1]: -8.50 mg/dL
- Serum Uric Acid, Observed, Mean (SD) [1]: 0.30 (0.000) mg/dL
- Serum Uric Acid, Observed, Median [1]: 0.30 mg/dL
- sUA <6 mg/dL, n (%) [1]: 2 (100%)
- Serum Uric Acid, Change from Baseline, Mean (SD) (Week 1, n=4): −6.88 (1.836) mg/dL
- Serum Uric Acid, Change from Baseline, Median (Week 1, n=4): -7.15 mg/dL
- Serum Uric Acid, Observed, Mean (SD) (Week 1, n=4): 0.30 (0.000) mg/dL
- Serum Uric Acid, Observed, Median (Week 1, n=4): 0.30 mg/dL
- sUA <6 mg/dL, n (%) (Week 1, n=4): 4 (100%)
- Serum Uric Acid, Change from Baseline, Mean (SD) (Week 2-Post-Infusion, n=11): −8.97 (2.810) mg/dL
- Serum Uric Acid, Change from Baseline, Median (Week 2-Post-Infusion, n=11): -8.80 mg/dL
- Serum Uric Acid, Observed, Mean (SD) (Week 2-Post-Infusion, n=11): 0.30 (0.000) mg/dL
- Serum Uric Acid, Observed, Median (Week 2-Post-Infusion, n=11): 0.30 mg/dL
- sUA <6 mg/dL, n (%) (Week 2-Post-Infusion, n=11): 11 (100%)
- Serum Uric Acid, Change from Baseline, Mean (SD) (Week 2-Pre-Infusion, n=11): −8.64 (2.086) mg/dL
- Serum Uric Acid, Change from Baseline, Median (Week 2-Pre-Infusion, n=11): -8.80 mg/dL
- Serum Uric Acid, Observed, Mean (SD) (Week 2-Pre-Infusion, n=11): 0.63 (1.096) mg/dL
- Serum Uric Acid, Observed, Median (Week 2-Pre-Infusion, n=11): 0.30 mg/dL
- sUA <6 mg/dL, n (%) (Week 2-Pre-Infusion, n=11): 11 (100%)
- Serum Uric Acid, Change from Baseline, Mean (SD) (Week 4-Post-Infusion, n=11): −8.97 (2.810) mg/dL
- Serum Uric Acid, Observed, Mean (SD) (Week 4-Post-Infusion, n=11): 0.30 (0.000) mg/dL
- Serum Uric Acid, Change from Baseline, Mean (SD) (Week 4-Pre-Infusion, n=11): −8.59 (2.884) mg/dL
- Serum Uric Acid, Change from Baseline, Median (Week 4-Pre-Infusion, n=11): -8.60 mg/dL
- Serum Uric Acid, Observed, Mean (SD) (Week 4-Pre-Infusion, n=11): 0.68 (1.043) mg/dL
- Serum Uric Acid, Observed, Median (Week 4-Pre-Infusion, n=11): 0.30 mg/dL
- sUA <6 mg/dL, n (%) (Week 4-Pre-Infusion, n=11): 11 (100%)
- sUA <6 mg/dL, n (%) (Week 7, n=4): 4 (100%)
- Serum Uric Acid, Change from Baseline, Mean (SD) (Week 8-Post-Infusion, n=11): −8.97 (2.810) mg/dL
- Serum Uric Acid, Change from Baseline, Median (Week 8-Post-Infusion, n=11): -8.80 mg/dL
- Serum Uric Acid, Observed, Mean (SD) (Week 8-Post-Infusion, n=11): 0.30 (0.000) mg/dL
- Serum Uric Acid, Observed, Median (Week 8-Post-Infusion, n=11): 0.30 mg/dL
- sUA <6 mg/dL, n (%) (Week 8-Post-Infusion, n=11): 11 (100%)
- Serum Uric Acid, Change from Baseline, Mean (SD) (Week 8-Pre-Infusion, n=11): −8.91 (2.824) mg/dL
- Serum Uric Acid, Change from Baseline, Median (Week 8-Pre-Infusion, n=11): -8.60 mg/dL
- Serum Uric Acid, Observed, Mean (SD) (Week 8-Pre-Infusion, n=11): 0.37 (0.224) mg/dL
- Serum Uric Acid, Observed, Median (Week 8-Pre-Infusion, n=11): 0.30 mg/dL
- sUA <6 mg/dL, n (%) (Week 8-Pre-Infusion, n=11): 11 (100%)
- Serum Uric Acid, Change from Baseline, Mean (SD) (Week 10-Post-Infusion, n=11): −8.97 (2.810) mg/dL
- Serum Uric Acid, Change from Baseline, Median (Week 10-Post-Infusion, n=11): -8.80 mg/dL
- Serum Uric Acid, Observed, Mean (SD) (Week 10-Post-Infusion, n=11): 0.30 (0.000) mg/dL
- Serum Uric Acid, Observed, Median (Week 10-Post-Infusion, n=11): 0.30 mg/dL
- sUA <6 mg/dL, n (%) (Week 10-Post-Infusion, n=11): 11 (100%)
- Serum Uric Acid, Change from Baseline, Mean (SD) (Week 10-Pre-Infusion, n=11): −8.97 (2.810) mg/dL
- Serum Uric Acid, Change from Baseline, Median (Week 10-Pre-Infusion, n=11): -8.80 mg/dL
- Serum Uric Acid, Observed, Mean (SD) (Week 10-Pre-Infusion, n=11): 0.30 (0.000) mg/dL
- Serum Uric Acid, Observed, Median (Week 10-Pre-Infusion, n=11): 0.30 mg/dL
- sUA <6 mg/dL, n (%) (Week 10-Pre-Infusion, n=11): 11 (100%)
- Serum Uric Acid, Change from Baseline, Mean (SD) (Week 12-Post-Infusion, n=10): −9.13 (2.911) mg/dL
- Serum Uric Acid, Change from Baseline, Median (Week 12-Post-Infusion, n=10): -9.05 mg/dL
- Serum Uric Acid, Observed, Mean (SD) (Week 12-Post-Infusion, n=10): 0.30 (0.000) mg/dL
- Serum Uric Acid, Observed, Median (Week 12-Post-Infusion, n=10): 0.30 mg/dL
- sUA <6 mg/dL, n (%) (Week 12-Post-Infusion, n=10): 10 (100%)
- Serum Uric Acid, Change from Baseline, Mean (SD) (Week 12-Pre-Infusion, n=11): −8.98 (2.806) mg/dL
- Serum Uric Acid, Change from Baseline, Median (Week 12-Pre-Infusion, n=11): -8.80 mg/dL
- Serum Uric Acid, Observed, Mean (SD) (Week 12-Pre-Infusion, n=11): 0.30 (0.015) mg/dL
- Serum Uric Acid, Observed, Median (Week 12-Pre-Infusion, n=11): 0.30 mg/dL
- sUA <6 mg/dL, n (%) (Week 12-Pre-Infusion, n=11): 11 (100%)
- Serum Uric Acid, Change from Baseline, Mean (SD) (Week 14-Post-Infusion, n=10): −9.01 (2.959) mg/dL
- Serum Uric Acid, Change from Baseline, Median (Week 14-Post-Infusion, n=10): -9.05 mg/dL
- Serum Uric Acid, Observed, Mean (SD) (Week 14-Post-Infusion, n=10): 0.30 (0.000) mg/dL
